# In the NIST ThermoML archive (doi:10.1016/j.jct.2017.03.026):
# Where “and” joins values, the source holds several entries; their conditions need not be identical. Equal values may be shown once. Numbers after ± are expanded uncertainties.
# Experiment: molar heat capacity at constant pressure
# Settings: 101.33 kPa, Crystal, Small (less than 1 g) adiabatic calorimetry
smiles,measurement,setting,value
O.O.O.O.O.O=S(=O)([O-])[O-].[Cu+2] [copper(II) sulfate pentahydrate],molar heat capacity at constant pressure,101.73 K,117.59 ± 0.57 J/K/mol
same,molar heat capacity at constant pressure,101.86 K,118.59 ± 0.81 J/K/mol
same,molar heat capacity at constant pressure,102.08 K,117.97 ± 0.57 J/K/mol
same,molar heat capacity at constant pressure,102.79 K,118.7 ± 0.57 J/K/mol
same,molar heat capacity at constant pressure,102.91 K,119.62 ± 0.81 J/K/mol
same,molar heat capacity at constant pressure,103.83 K,120.63 ± 0.81 J/K/mol
same,molar heat capacity at constant pressure,103.84 K,119.78 ± 0.58 J/K/mol
same,molar heat capacity at constant pressure,103.89 K,120.08 ± 0.58 J/K/mol
same,molar heat capacity at constant pressure,103.96 K,120.8 ± 0.81 J/K/mol
same,molar heat capacity at constant pressure,104.14 K,120.09 ± 0.57 J/K/mol
same,molar heat capacity at constant pressure,104.36 K,121.29 ± 0.81 J/K/mol
same,molar heat capacity at constant pressure,104.89 K,120.9 ± 0.58 J/K/mol
same,molar heat capacity at constant pressure,105.01 K,121.85 ± 0.82 J/K/mol
same,molar heat capacity at constant pressure,105.93 K,122.01 ± 0.58 J/K/mol
same,molar heat capacity at constant pressure,106.06 K,122.97 ± 0.82 J/K/mol
same,molar heat capacity at constant pressure,106.2 K,122.39 ± 0.58 J/K/mol
same,molar heat capacity at constant pressure,106.46 K,123.36 ± 0.83 J/K/mol
same,molar heat capacity at constant pressure,106.97 K,123.24 ± 0.59 J/K/mol
same,molar heat capacity at constant pressure,106.98 K,123.14 ± 0.58 J/K/mol
same,molar heat capacity at constant pressure,107.12 K,123.92 ± 0.83 J/K/mol
same,molar heat capacity at constant pressure,107.46 K,124.56 ± 0.82 J/K/mol
same,molar heat capacity at constant pressure,108.03 K,124.25 ± 0.59 J/K/mol
same,molar heat capacity at constant pressure,108.17 K,125.23 ± 0.83 J/K/mol
same,molar heat capacity at constant pressure,108.27 K,124.44 ± 0.59 J/K/mol
same,molar heat capacity at constant pressure,109.08 K,125.36 ± 0.59 J/K/mol
same,molar heat capacity at constant pressure,109.1 K,126.13 ± 0.83 J/K/mol
same,molar heat capacity at constant pressure,109.23 K,126.17 ± 0.83 J/K/mol
same,molar heat capacity at constant pressure,110 K,126.2 ± 0.6 J/K/mol
same,molar heat capacity at constant pressure,110.06 K,126.42 ± 0.59 J/K/mol
same,molar heat capacity at constant pressure,110.13 K,126.46 ± 0.59 J/K/mol
same,molar heat capacity at constant pressure,110.29 K,127.26 ± 0.84 J/K/mol
same,molar heat capacity at constant pressure,110.33 K,126.54 ± 0.59 J/K/mol
same,molar heat capacity at constant pressure,110.57 K,127.78 ± 0.84 J/K/mol
same,molar heat capacity at constant pressure,111.18 K,127.44 ± 0.59 J/K/mol
same,molar heat capacity at constant pressure,111.37 K,128.56 ± 0.84 J/K/mol
same,molar heat capacity at constant pressure,111.74 K,128.74 ± 0.84 J/K/mol
same,molar heat capacity at constant pressure,112.23 K,128.52 ± 0.6 J/K/mol
same,molar heat capacity at constant pressure,112.4 K,128.7 ± 0.6 J/K/mol
same,molar heat capacity at constant pressure,112.43 K,129.57 ± 0.84 J/K/mol
same,molar heat capacity at constant pressure,113.16 K,129.6 ± 0.6 J/K/mol
same,molar heat capacity at constant pressure,113.29 K,129.54 ± 0.6 J/K/mol
same,molar heat capacity at constant pressure,113.49 K,130.69 ± 0.85 J/K/mol
same,molar heat capacity at constant pressure,113.69 K,130.98 ± 0.85 J/K/mol
same,molar heat capacity at constant pressure,114.34 K,130.68 ± 0.61 J/K/mol
same,molar heat capacity at constant pressure,114.38 K,131.41 ± 0.85 J/K/mol
same,molar heat capacity at constant pressure,114.47 K,130.81 ± 0.61 J/K/mol
same,molar heat capacity at constant pressure,114.56 K,131.62 ± 0.86 J/K/mol
same,molar heat capacity at constant pressure,115.39 K,131.78 ± 0.61 J/K/mol
same,molar heat capacity at constant pressure,115.62 K,132.81 ± 0.85 J/K/mol
same,molar heat capacity at constant pressure,116.25 K,132.9 ± 0.61 J/K/mol
same,molar heat capacity at constant pressure,116.44 K,132.81 ± 0.61 J/K/mol
same,molar heat capacity at constant pressure,116.54 K,133.18 ± 0.61 J/K/mol
same,molar heat capacity at constant pressure,116.68 K,133.94 ± 0.86 J/K/mol
same,molar heat capacity at constant pressure,116.81 K,134.01 ± 0.86 J/K/mol
same,molar heat capacity at constant pressure,117.02 K,134.2 ± 0.86 J/K/mol
same,molar heat capacity at constant pressure,117.5 K,133.84 ± 0.61 J/K/mol
same,molar heat capacity at constant pressure,117.75 K,134.93 ± 0.86 J/K/mol
same,molar heat capacity at constant pressure,118.55 K,134.96 ± 0.62 J/K/mol
same,molar heat capacity at constant pressure,118.62 K,135 ± 0.62 J/K/mol
same,molar heat capacity at constant pressure,118.81 K,136.22 ± 0.87 J/K/mol
same,molar heat capacity at constant pressure,119.36 K,135.88 ± 0.62 J/K/mol
same,molar heat capacity at constant pressure,119.63 K,136.14 ± 0.62 J/K/mol
same,molar heat capacity at constant pressure,119.67 K,137.03 ± 0.87 J/K/mol
same,molar heat capacity at constant pressure,119.88 K,137.17 ± 0.87 J/K/mol
same,molar heat capacity at constant pressure,119.93 K,137.32 ± 0.87 J/K/mol
same,molar heat capacity at constant pressure,120 K,136.3 ± 0.6 J/K/mol
same,molar heat capacity at constant pressure,120.69 K,136.94 ± 0.62 J/K/mol and 137.14 ± 0.62 J/K/mol
same,molar heat capacity at constant pressure,120.95 K,138.19 ± 0.87 J/K/mol
same,molar heat capacity at constant pressure,121.74 K,138.15 ± 0.63 J/K/mol
same,molar heat capacity at constant pressure,122.02 K,139.11 ± 0.88 J/K/mol
same,molar heat capacity at constant pressure,122.32 K,139.58 ± 0.88 J/K/mol
same,molar heat capacity at constant pressure,122.46 K,138.97 ± 0.63 J/K/mol
same,molar heat capacity at constant pressure,122.8 K,139.17 ± 0.63 J/K/mol and 139.26 ± 0.63 J/K/mol
same,molar heat capacity at constant pressure,123.07 K,140.4 ± 0.88 J/K/mol
same,molar heat capacity at constant pressure,123.09 K,140.26 ± 0.88 J/K/mol
same,molar heat capacity at constant pressure,123.86 K,140.26 ± 0.63 J/K/mol
same,molar heat capacity at constant pressure,124.16 K,141.38 ± 0.88 J/K/mol
same,molar heat capacity at constant pressure,124.88 K,141.31 ± 0.63 J/K/mol
same,molar heat capacity at constant pressure,124.91 K,141.44 ± 0.63 J/K/mol
same,molar heat capacity at constant pressure,124.97 K,142.22 ± 0.88 J/K/mol
same,molar heat capacity at constant pressure,125.23 K,142.7 ± 0.89 J/K/mol
same,molar heat capacity at constant pressure,125.57 K,142.11 ± 0.63 J/K/mol
same,molar heat capacity at constant pressure,125.97 K,142.63 ± 0.64 J/K/mol
same,molar heat capacity at constant pressure,126.2 K,143.67 ± 0.89 J/K/mol
same,molar heat capacity at constant pressure,126.3 K,143.66 ± 0.89 J/K/mol
same,molar heat capacity at constant pressure,126.97 K,143.36 ± 0.64 J/K/mol
same,molar heat capacity at constant pressure,127.03 K,143.46 ± 0.64 J/K/mol
same,molar heat capacity at constant pressure,127.37 K,144.66 ± 0.9 J/K/mol
same,molar heat capacity at constant pressure,127.62 K,145 ± 0.9 J/K/mol
same,molar heat capacity at constant pressure,128.08 K,144.35 ± 0.64 J/K/mol
same,molar heat capacity at constant pressure,128.47 K,145.88 ± 0.89 J/K/mol
same,molar heat capacity at constant pressure,128.7 K,145.15 ± 0.64 J/K/mol
same,molar heat capacity at constant pressure,129.05 K,145.44 ± 0.65 J/K/mol
same,molar heat capacity at constant pressure,129.14 K,145.37 ± 0.65 J/K/mol
same,molar heat capacity at constant pressure,129.38 K,146.91 ± 0.9 J/K/mol
same,molar heat capacity at constant pressure,129.54 K,146.79 ± 0.9 J/K/mol
same,molar heat capacity at constant pressure,130 K,146.3 ± 0.6 J/K/mol
same,molar heat capacity at constant pressure,130.2 K,146.58 ± 0.65 J/K/mol
same,molar heat capacity at constant pressure,130.3 K,147.58 ± 0.9 J/K/mol
same,molar heat capacity at constant pressure,130.62 K,147.67 ± 0.9 J/K/mol
same,molar heat capacity at constant pressure,131.13 K,147.52 ± 0.65 J/K/mol
same,molar heat capacity at constant pressure,131.25 K,147.55 ± 0.65 J/K/mol
same,molar heat capacity at constant pressure,131.69 K,149.05 ± 0.91 J/K/mol
same,molar heat capacity at constant pressure,131.82 K,148.2 ± 0.65 J/K/mol
same,molar heat capacity at constant pressure,132.31 K,148.61 ± 0.65 J/K/mol
same,molar heat capacity at constant pressure,132.53 K,150.01 ± 0.92 J/K/mol
same,molar heat capacity at constant pressure,132.77 K,150.08 ± 0.92 J/K/mol
same,molar heat capacity at constant pressure,132.95 K,150.13 ± 0.92 J/K/mol
same,molar heat capacity at constant pressure,133.22 K,149.57 ± 0.65 J/K/mol
same,molar heat capacity at constant pressure,133.37 K,149.93 ± 0.65 J/K/mol
same,molar heat capacity at constant pressure,133.85 K,151.35 ± 0.91 J/K/mol
same,molar heat capacity at constant pressure,134.43 K,150.8 ± 0.66 J/K/mol
same,molar heat capacity at constant pressure,134.92 K,152.13 ± 0.92 J/K/mol
same,molar heat capacity at constant pressure,134.93 K,151.23 ± 0.66 J/K/mol
same,molar heat capacity at constant pressure,135.3 K,151.53 ± 0.66 J/K/mol
same,molar heat capacity at constant pressure,135.49 K,151.95 ± 0.66 J/K/mol
same,molar heat capacity at constant pressure,135.59 K,152.75 ± 0.92 J/K/mol
same,molar heat capacity at constant pressure,135.69 K,153.09 ± 0.92 J/K/mol
same,molar heat capacity at constant pressure,136 K,153.04 ± 0.92 J/K/mol
same,molar heat capacity at constant pressure,136.56 K,152.7 ± 0.66 J/K/mol
same,molar heat capacity at constant pressure,137.07 K,154.23 ± 0.93 J/K/mol
same,molar heat capacity at constant pressure,137.39 K,153.55 ± 0.67 J/K/mol
same,molar heat capacity at constant pressure,137.61 K,153.75 ± 0.67 J/K/mol
same,molar heat capacity at constant pressure,138.05 K,154.26 ± 0.67 J/K/mol
same,molar heat capacity at constant pressure,138.14 K,155.44 ± 0.93 J/K/mol
same,molar heat capacity at constant pressure,138.23 K,155.31 ± 0.93 J/K/mol
same,molar heat capacity at constant pressure,138.67 K,154.9 ± 0.67 J/K/mol
same,molar heat capacity at constant pressure,138.85 K,156.32 ± 0.93 J/K/mol
same,molar heat capacity at constant pressure,139.22 K,156.25 ± 0.93 J/K/mol
same,molar heat capacity at constant pressure,139.47 K,155.53 ± 0.67 J/K/mol
same,molar heat capacity at constant pressure,139.72 K,155.9 ± 0.68 J/K/mol
same,molar heat capacity at constant pressure,140 K,156 ± 0.7 J/K/mol
same,molar heat capacity at constant pressure,140.3 K,157.18 ± 0.93 J/K/mol
same,molar heat capacity at constant pressure,140.78 K,156.94 ± 0.67 J/K/mol
same,molar heat capacity at constant pressure,140.87 K,157.92 ± 0.93 J/K/mol
same,molar heat capacity at constant pressure,141.16 K,157.45 ± 0.67 J/K/mol
same,molar heat capacity at constant pressure,141.37 K,158.29 ± 0.94 J/K/mol
same,molar heat capacity at constant pressure,141.56 K,157.55 ± 0.67 J/K/mol
same,molar heat capacity at constant pressure,141.83 K,157.84 ± 0.67 J/K/mol
same,molar heat capacity at constant pressure,142.01 K,159.46 ± 0.94 J/K/mol
same,molar heat capacity at constant pressure,142.45 K,159.47 ± 0.94 J/K/mol
same,molar heat capacity at constant pressure,142.89 K,158.79 ± 0.68 J/K/mol
same,molar heat capacity at constant pressure,143.51 K,160.83 ± 0.95 J/K/mol
same,molar heat capacity at constant pressure,143.52 K,160.62 ± 0.95 J/K/mol
same,molar heat capacity at constant pressure,143.64 K,159.6 ± 0.68 J/K/mol
same,molar heat capacity at constant pressure,143.94 K,159.82 ± 0.68 J/K/mol
same,molar heat capacity at constant pressure,144.28 K,160.35 ± 0.68 J/K/mol
same,molar heat capacity at constant pressure,144.6 K,161.74 ± 0.94 J/K/mol
same,molar heat capacity at constant pressure,144.99 K,160.85 ± 0.69 J/K/mol
same,molar heat capacity at constant pressure,145.18 K,162.59 ± 0.95 J/K/mol
same,molar heat capacity at constant pressure,145.7 K,162.72 ± 0.95 J/K/mol
same,molar heat capacity at constant pressure,145.73 K,161.63 ± 0.69 J/K/mol
same,molar heat capacity at constant pressure,146.04 K,161.99 ± 0.69 J/K/mol
same,molar heat capacity at constant pressure,146.16 K,163.13 ± 0.95 J/K/mol
same,molar heat capacity at constant pressure,146.78 K,163.89 ± 0.95 J/K/mol
same,molar heat capacity at constant pressure,147.09 K,162.84 ± 0.69 J/K/mol
same,molar heat capacity at constant pressure,147.4 K,163.32 ± 0.69 J/K/mol
same,molar heat capacity at constant pressure,147.81 K,163.57 ± 0.69 J/K/mol
